≈ marks a conversion by molar mass, not a printed value. Calls of active or inactive are those of the source. No cut-off for these calls is given here.
Columns and labels:
[1] = target: Metallo-beta-lactamase type 2 (Klebsiella pneumoniae, UniProt C7C422); assay: Inhibition of NDM-1 in Klebsiella pneumoniae using meropenem as substrate incubated for 0.5 hrs
Bacteria [2] = assay: (§1) Inhibition of bacterial NDM-1 expressed in Escherichia coli BL21 (DE3) using meropenem as substrate incubated for 1 hr by spectrometry analysis
[3] = as §1; design: species or system Bacteria
Escherichia coli [4] = assay: Antibacterial activity against Escherichia coli producing VIM-2 assessed as fractional inhibitory concentration index incubated for 24 hrs in presence of meropenem by checkerboard assay; assay type: functional
Klebsiella pneumoniae [5] = assay: Potentiation of meropenem-induced antibacterial activity against Klebsiella pneumoniae assessed as fold reduction in meropenem MIC incubated for 24 hrs by broth microdilution method relative to meropenem alone; assay type: functional
Escherichia coli [6] = assay: Antibacterial activity against Escherichia coli producing NDM-1 assessed as zone of inhibition in presence of meropenem (reference value: 23.5 millimeter); assay type: functional
Escherichia coli [7] = assay: Potentiation of meropenem-induced antibacterial activity against Escherichia coli 01 assessed as fold reduction in meropenem MIC incubated for 24 hrs by broth microdilution method relative to meropenem alone; assay type: functional
Escherichia coli [8] = assay: Antibacterial activity against Escherichia coli producing NDM-1 assessed as fractional inhibitory concentration index incubated for 24 hrs in presence of meropenem by checkerboard assay; assay type: functional
Escherichia coli [9] = assay: Bactericidal activity against Escherichia coli producing NDM-1 assessed as reduction in bacterial viability upto 64 ug/ml incubated for 12 hrs by time kill assay; assay type: functional; details: dose microg/ml <=64
Escherichia coli [10] = assay: Antibacterial activity against Escherichia coli 08 assessed as reduction in bacterial growth incubated for 24 hrs by broth microdilution method; assay type: functional
Escherichia coli [11] = assay: Inhibition of Escherichia coli NDM-1 assessed as bacterial growth rate in presence of ZnCl2 and meropenem relative to control; design: scale not given: the % may be the effect or the level left
Klebsiella pneumoniae [12] = assay: In vivo antibacterial activity against Klebsiella pneumoniae producing NDM-1 infected in mouse assessed as reduction in bacterial load in liver at 2 mg/kg, ip in presence of meropenem; assay type: functional, organism-based
Bacteria [13] = assay: Inhibition of bacterial VIM-2 expressed in Escherichia coli BL21 (DE3) at 20 uM using meropenem as substrate incubated for 1 hr by spectrometry analysis relative to control
Bacteria [14] = assay: Inhibition of bacterial ImiS expressed in Escherichia coli BL21 (DE3) at 20 uM using meropenem as substrate incubated for 1 hr by spectrometry analysis relative to control
Escherichia coli [15] = assay: Potentiation of meropenem-induced antibacterial activity against Escherichia coli 24 assessed as fold reduction in meropenem MIC incubated for 24 hrs by broth microdilution method relative to meropenem alone; assay type: functional
Bacteria [16] = assay: (§2) Inhibition of bacterial IMP-1 using meropenem as substrate incubated for 1 hr by spectrometry analysis
[17] = as §2; design: species or system Bacteria
Escherichia coli [18] = assay: Inhibition of Escherichia coli L1 assessed as potentiation of meropenem-induced antibacterial activity by measuring meropenem MIC incubated for 24 hrs by broth microdilution method
Pseudomonas aeruginosa = assay: Antibacterial activity against Carbapenem-resistant Pseudomonas aeruginosa assessed as reduction in bacterial growth incubated for 24 hrs by broth microdilution method; assay type: functional
Escherichia coli [19] = assay: Potentiation of meropenem-induced antibacterial activity against Escherichia coli 08 assessed as meropenem MIC incubated for 24 hrs by broth microdilution method; assay type: functional
Klebsiella pneumoniae [20] = assay: In vivo antibacterial activity against Klebsiella pneumoniae producing NDM-1 infected in mouse assessed as reduction in bacterial load in spleen at 2 mg/kg, ip; assay type: functional, organism-based
Bacteria [21] = assay: (§3) Inhibition of bacterial L1 using meropenem as substrate incubated for 1 hr by spectrometry analysis
[22] = as §3; design: species or system Bacteria
[23] = target: Metallo-beta-lactamase (Escherichia coli) (UniProt Q5U7L7); assay: Inhibition of Escherichia coli VIM-2 assessed as potentiation of meropenem-induced antibacterial activity by measuring fold reduction in meropenem MIC up to 8 ug/ml incubated for 24 hrs by broth microdilution method relative to meropenem alone; details: dose microg/ml <=8, time 24.0 hrs
Bacteria [24] = assay: Reversible inhibition of bacterial NDM-1 assessed as residual activity at 50 uM incubated for 6 hrs by dialysis method relative to control
Escherichia coli [25] = assay: Inhibition of Escherichia coli NDM-1 assessed as synergistic antibacterial activity at 4 ug/ml in presence of meropenem; details: dose 4.0 µg/ml
Escherichia coli [26] = assay: Potentiation of meropenem-induced antibacterial activity against Escherichia coli 06 assessed as meropenem MIC incubated for 24 hrs by broth microdilution method; assay type: functional
Bacteria [27] = assay: Inhibition of bacterial L1 at 20 uM using meropenem as substrate incubated for 1 hr by spectrometry analysis relative to control
Staphylococcus aureus = assay: Antibacterial activity against methicillin-resistant Staphylococcus aureus assessed as reduction in bacterial growth incubated for 24 hrs by broth microdilution method; assay type: functional
Escherichia coli [28] = assay: Antibacterial activity against Escherichia coli producing L1 assessed as fractional inhibitory concentration index incubated for 24 hrs in presence of meropenem by checkerboard assay; assay type: functional, organism-based
Bacteria [29] = assay: Reversible inhibition of bacterial NDM-1 assessed as enzyme activity at 50 uM incubated for 6 hrs by ICP-MS analysis
Klebsiella pneumoniae [30] = assay: Antibacterial activity against Klebsiella pneumoniae assessed as reduction in bacterial growth incubated for 24 hrs by broth microdilution method; assay type: functional
[31] = target: Metallo-beta-lactamase (Escherichia coli) (UniProt Q5U7L7); assay: Inhibition of Escherichia coli VIM-2 assessed as potentiation of meropenem-induced antibacterial activity by measuring meropenem MIC incubated for 24 hrs by broth microdilution method
[32] = Competitive inhibition of bacterial NDM-1 expressed in Escherichia coli BL21 (DE3) using meropenem as substrate incubated for 1 hr by Lineweaver-Burk plot analysis; design: species or system Bacteria
Escherichia coli [33] = assay: Antibacterial activity against Escherichia coli producing IMP-1 assessed as fractional inhibitory concentration index incubated for 24 hrs in presence of meropenem by checkerboard assay; assay type: functional, organism-based
Bacteria [34] = assay: Inhibition of bacterial IMP-1 at 20 uM using meropenem as substrate incubated for 1 hr by spectrometry analysis relative to control
Escherichia coli [35] = assay: Inhibition of Escherichia coli ImiS assessed as potentiation of meropenem-induced antibacterial activity by measuring fold reduction in meropenem MIC up to 8 ug/ml incubated for 24 hrs by broth microdilution method relative to meropenem alone; details: dose microg/ml <=8, time 24.0 hrs
Escherichia coli [36] = assay: Antibacterial activity against Escherichia coli 01 assessed as reduction in bacterial growth incubated for 24 hrs by broth microdilution method; assay type: functional
Escherichia coli [37] = assay: Inhibition of Escherichia coli ImiS assessed as potentiation of meropenem-induced antibacterial activity by measuring meropenem MIC incubated for 24 hrs by broth microdilution method
Escherichia coli [38] = assay: Antibacterial activity against Escherichia coli 04 assessed as reduction in bacterial growth incubated for 24 hrs by broth microdilution method; assay type: functional
Escherichia coli [39] = assay: Bactericidal activity against Escherichia coli producing NDM-1 assessed as reduction in bacterial viability at 4 ug/ml in presence of meropenem incubated for 12 hrs by time kill assay; assay type: functional, organism-based; details: dose 4.0 µg/ml
Escherichia coli [40] = assay: Inhibition of Escherichia coli L1 assessed as potentiation of meropenem-induced antibacterial activity by measuring fold reduction in meropenem MIC up to 8 ug/ml incubated for 24 hrs by broth microdilution method relative to meropenem alone; details: dose microg/ml <=8, time 24.0 hrs
Escherichia coli [41] = assay: Inhibition of Escherichia coli IMP-1 assessed as potentiation of meropenem-induced antibacterial activity by measuring fold reduction in meropenem MIC up to 8 ug/ml incubated for 24 hrs by broth microdilution method relative to meropenem alone; details: dose microg/ml <=8, time 24.0 hrs

Sequence of Metallo-beta-lactamase type 2 (C7C422 whole entry): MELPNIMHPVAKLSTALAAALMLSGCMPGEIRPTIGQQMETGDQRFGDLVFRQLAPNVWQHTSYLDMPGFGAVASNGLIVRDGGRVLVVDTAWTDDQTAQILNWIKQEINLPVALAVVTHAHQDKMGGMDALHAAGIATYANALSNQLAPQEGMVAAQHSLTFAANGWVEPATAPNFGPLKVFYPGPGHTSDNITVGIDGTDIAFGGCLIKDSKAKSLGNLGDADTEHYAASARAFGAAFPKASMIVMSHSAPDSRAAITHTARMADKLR

CN(C(=S)NN=C(c1ccccn1)c1ccccn1)C1CCCCC1
IC50 [1]: 13600 nM | inhibition (Bacteria [2]): Dose-Dependent Effect | IC50 [3]: 21 nM | FIC (Escherichia coli [4]): 0.313 | fold change (FC) (Klebsiella pneumoniae [5]): 8 | inhibition zone (IZ) (Escherichia coli [6]): 30.1 mm | fold change (FC) (Escherichia coli [7]): 2 | FIC (Escherichia coli [8]): 0.313 | inhibition (INH) (Escherichia coli [9]): 99% | MIC (Escherichia coli [10]): 16 µg/mL (≈ 45.3 µM) | Activity (Escherichia coli [11]): 65% | inhibition (Klebsiella pneumoniae [12]): Active | inhibition (Bacteria [13]): > 90% | inhibition (Bacteria [14]): > 90% | fold change (FC) (Escherichia coli [15]): 2 | inhibition (Bacteria [16]): Dose-Dependent Effect | IC50 [17]: 280 nM | MIC (Escherichia coli [18]): 32 µg/mL | MIC (Pseudomonas aeruginosa): 16 µg/mL (≈ 45.3 µM) | MIC (Escherichia coli [19]): 32 µg/mL | inhibition (Klebsiella pneumoniae [20]): inactive | inhibition (Bacteria [21]): Dose-Dependent Effect | IC50 [22]: 1080 nM | fold change (FC) [23]: 32 | Activity (Bacteria [24]): 70% | inhibition (Escherichia coli [25]): Active | MIC (Escherichia coli [26]): 64 µg/mL | inhibition (Bacteria [27]): > 90% | MIC (Staphylococcus aureus): 32 µg/mL (≈ 90.5 µM) | Activity (Escherichia coli [28]): inactive | inhibition (Bacteria [29]): Active | MIC (Klebsiella pneumoniae [30]): 32 µg/mL (≈ 90.5 µM) | MIC [31]: 8 µg/mL | Ki [32]: 10.2 nM | Activity (Escherichia coli [33]): inactive | inhibition (Bacteria [34]): > 90% | fold change (FC) (Escherichia coli [35]): 64 | MIC (Escherichia coli [36]): 16 µg/mL (≈ 45.3 µM) | MIC (Escherichia coli [37]): 4 µg/mL | MIC (Escherichia coli [38]): 16 µg/mL (≈ 45.3 µM) | inhibition (Escherichia coli [39]): Active | fold change (FC) (Escherichia coli [40]): 4 | fold change (FC) (Escherichia coli [41]): 8

From ChEMBL document CHEMBL4819085, “Dipyridyl-substituted thiosemicarbazone as a potent broad-spectrum inhibitor of metallo-β-lactamases” (Bioorg Med Chem, 2021)
